Assay results reported in patent US20160177395A1, “BIOMARKERS FOR THE PREDICTION OF RENAL INJURY” (priority 2007, published 2016).
Several values for one entry are separate records, joined by “and”; a condition that tells them apart may be missing. Equal entries are not always repeated.

Columns and labels:
[1] = tested on: kidney tissues of treated or untreated rats; experiment: Real-time qRT-PCR of signature amplicons, validation stage, labeled and un-labeled samples (Table 23); conditions: for H31883_DB71_seg13 normalized qRT-PCR result / MUSCYCG1R_DB81_seg19-20 normalized qRT-PCR result / W41270_DB81_seg11 normalized qRT-PCR result: un-labeled sample, one line per animal; for AI045075_DB71_seg6 normalized qRT-PCR expression (Interferon stimulated exonuclease 20 (ISG20) transcript) / H31883_DB71_seg13 normalized qRT-PCR expression (Cyclin-G1 (CCNG1) transcript) / MUSCYCG1R_DB81_seg19-20 normalized qRT-PCR expression / W41270_DB81_seg11 normalized qRT-PCR expression (tumor necrosis factor receptor superfamily, member 12a transcript) / W64472_DB81_seg2 normalized qRT-PCR expression (Interferon stimulated exonuclease 20 (ISG20) transcript) / W83813_DB81_seg27 normalized qRT-PCR expression: un-labeled samples, kidney of individual male/female rats
Source text: New primers were designed for part of the transcripts, and new conditions for several qRT-PCR reactions were used, as described below.
The measurements were normalized in two steps. First—according to the house-keeping-genes normalization factor, and second—each plate was normalized according to ratio of the intensity measurements from samples appearing in it and in the shuffled (normalization) plate (Table 25 provides the plates details and the section “Inter-Plate Normalization” provides details of the normalization process). The normalized values were further scaled by a factor, for ease of viewing.
RT was prepared and qRT-PCR performed and analyzed as described hereinabove. qRT-PCR was performed for the four genes comprising the signature of the discovery stage described in Table 13. Two amplicons were tested for each gene—one representing the wild-type transcript, and another representing an alternative splice variant. Each amplicon was measured using the labeled samples described in Table 9 herein, as well as the un-labeled samples. Samples from both groups (labeled and un-labeled) were tested in seven 96 well plates as described in Table 25. In order to correct possible run to run variations, the following controls were added: 1. several samples were repeated in all 96 wells plates; 2. control shuffled plate was designed which combined samples from all seven test plates.
To account for possible differences of qRT-PCR measurements between the different plates due to experimental artifacts, a normalization plate was planned. This plate, designated hereinabove ‘shuffled plate’, contained samples from all other plates. Real Time PCR was performed on this plate using the primers appropriate for all candidates in tables 26 and 27. For each other plate (plates 1-7 above) and each amplicon, the samples appearing also in the shuffled plate were examined—the ratio between the transcript abundance as measured in the plate to the abundance as measured in the shuffled plate was calculated, outliers were manually removed, and the geometric mean of the left ratios was taken as an additional multiplicative normalization factor for the plate and amplicon.

kidney = experiment: Renal histopathology of rats treated with T1, T2, T3; type: in vivo, rat; conditions: rat, in vivo
Procedure: Each group consisted of 6 male and 6 female rats. The additional groups consisted of 6 males and 6 female rats treated with control compound for a single day and for five days, as described in Table 24.
T2 “no observed effect level” (NOEL, i.e., the maximal dose at which no toxic effect is visible) is 15 mg/kg.
At autopsy, both kidneys of each animal were removed and each kidney was cross sectioned. Half of each kidney was sent to RNA extraction and analysis.

[2] = Ds1, Day1, oral gavage, female rat kidney
[3] = Ds1, Day1, oral gavage, male rat kidney
[4] = Ds1, Day5, oral gavage, female rat kidney
[5] = Ds1, Day5, oral gavage, male rat kidney
[6] = Ds2, Day1, oral gavage, female rat kidney
[7] = Ds2, Day1, oral gavage, male rat kidney
[8] = Ds2, Day5, oral gavage, female rat kidney
[9] = Ds2, Day5, oral gavage, male rat kidney

For `Nc1nc2ccc(OC(F)(F)F)cc2s1` [T3, 6-(trifluoromethoxy)benzothiazol-2-amine], the “H31883_DB71_seg13 normalized qRT-PCR result” value [1, 2] was 0.394 and 0.356 and 0.205, the “MUSCYCG1R_DB81_seg19-20 normalized qRT-PCR result” value [1, 2] was 0.85 and 1.252 and 0.37 and the “W41270_DB81_seg11 normalized qRT-PCR result” value [1, 2] was 0.859 and 1.064 and 0.507. The “H31883_DB71_seg13 normalized qRT-PCR result” value [1, 3] was 0.898 and 0.512 and 0.989 and 0.789, the “MUSCYCG1R_DB81_seg19-20 normalized qRT-PCR result” value [1, 3] was 0.918 and 0.845 and 1.025 and 0.713 and the “W41270_DB81_seg11 normalized qRT-PCR result” value [1, 3] was 0.567 and 1.106 and 1.844 and 0.808. The “H31883_DB71_seg13 normalized qRT-PCR result” value [1, 4] was 0.701 and 1.155 and 0.791 and 1.096, the “MUSCYCG1R_DB81_seg19-20 normalized qRT-PCR result” value [1, 4] was 0.501 and 0.727 and 0.928 and 1.021 and the “W41270_DB81_seg11 normalized qRT-PCR result” value [1, 4] was 0.479 and 0.546 and 0.601 and 0.677. The “H31883_DB71_seg13 normalized qRT-PCR result” value [1, 5] was 1.054 and 0.818 and 0.72, the “MUSCYCG1R_DB81_seg19-20 normalized qRT-PCR result” value [1, 5] was 1.285 and 1.133 and 1.175 and the “W41270_DB81_seg11 normalized qRT-PCR result” value [1, 5] was 0.88 and 0.8 and 0.499. For the same molecule, the “H31883_DB71_seg13 normalized qRT-PCR result” value [1, 6] was 0.874 and 0.929 and 1.454, the “MUSCYCG1R_DB81_seg19-20 normalized qRT-PCR result” value [1, 6] was 1.132 and 1.211 and 0.575 and the “W41270_DB81_seg11 normalized qRT-PCR result” value [1, 6] was 0.847 and 1.043 and 1.227. The “H31883_DB71_seg13 normalized qRT-PCR result” value [1, 7] was 0.276 and 0.164 and 0.218 and 0.211, the “MUSCYCG1R_DB81_seg19-20 normalized qRT-PCR result” value [1, 7] was 1.479 and 0.566 and 1.063 and 1.117 and the “W41270_DB81_seg11 normalized qRT-PCR result” value [1, 7] was 2.291 and 1.042 and 1.597 and 1.35. For the same molecule, the “H31883_DB71_seg13 normalized qRT-PCR result” value [1, 8] was 0.81 and 0.711 and 1.599 and 1.018, the “MUSCYCG1R_DB81_seg19-20 normalized qRT-PCR result” value [1, 8] was 0.666 and 0.977 and 1.436 and 0.58 and the “W41270_DB81_seg11 normalized qRT-PCR result” value [1, 8] was 0.587 and 0.623 and 1.24 and 0.704. For the same molecule, the “H31883_DB71_seg13 normalized qRT-PCR result” value [1, 9] was 1.103 and 0.911, the “MUSCYCG1R_DB81_seg19-20 normalized qRT-PCR result” value [1, 9] was 0.765 and 1.037 and the “W41270_DB81_seg11 normalized qRT-PCR result” value [1, 9] was 0.494 and 3.181. The “AI045075_DB71_seg6 normalized qRT-PCR expression (Interferon stimulated exonuclease 20 (ISG20) transcript)” value ([1]; dose Ds1, Day1, oral gavage) was 0.354 and 1.103 and 0.678 and 0.596, the “H31883_DB71_seg13 normalized qRT-PCR expression (Cyclin-G1 (CCNG1) transcript)” value ([1]; dose Ds1, Day1, oral gavage) was 0.919 and 0.764 and 0.611 and 0.663 and 0.569 and 1.366 and 0.637 and 0.949 and 0.7 and 0.582 and 1.074 and the “MUSCYCG1R_DB81_seg19-20 normalized qRT-PCR expression” value ([1]; dose Ds1, Day1, oral gavage) was 0.96 and 0.232 and 0.183 and 1.044 and 1.137 and 0.132 and 0.134 and 0.767 and 0.441 and 0.114 and 0.726. The “W41270_DB81_seg11 normalized qRT-PCR expression (tumor necrosis factor receptor superfamily, member 12a transcript)” value ([1]; dose Ds1, Day1, oral gavage) was 0.64 and 0.457 and 0.575 and 0.374 and 0.468 and 0.465 and 0.344 and 0.568 and 0.551 and 0.282 and 0.649, the “W64472_DB81_seg2 normalized qRT-PCR expression (Interferon stimulated exonuclease 20 (ISG20) transcript)” value ([1]; dose Ds1, Day1, oral gavage) was 0.483 and 1.31 and 1.296 and 0.52 and the “W83813_DB81_seg27 normalized qRT-PCR expression” value ([1]; dose Ds1, Day1, oral gavage) was 0.322 and 0.663 and 0.497 and 0.402. The “AI045075_DB71_seg6 normalized qRT-PCR expression (Interferon stimulated exonuclease 20 (ISG20) transcript)” value ([1]; dose Ds1, Day5, oral gavage) was 0.615 and 1.082 and 1.102 and 1.032, the “H31883_DB71_seg13 normalized qRT-PCR expression (Cyclin-G1 (CCNG1) transcript)” value ([1]; dose Ds1, Day5, oral gavage) was 1.65 and 1.003 and 1.338 and 0.576 and 1.082 and 1.358 and 1.585 and 0.946 and 1.094 and 1.3 and 1.301 and the “MUSCYCG1R_DB81_seg19-20 normalized qRT-PCR expression” value ([1]; dose Ds1, Day5, oral gavage) was 0.649 and 0.716 and 1.035 and 1.226 and 0.857 and 0.625 and 0.525 and 0.398 and 1.413 and 0.62 and 0.638. The “W41270_DB81_seg11 normalized qRT-PCR expression (tumor necrosis factor receptor superfamily, member 12a transcript)” value ([1]; dose Ds1, Day5, oral gavage) was 0.722 and 1.807 and 0.483 and 0.899 and 0.832 and 1.015 and 0.699 and 0.495 and 1.093 and 0.482 and 1.957, the “W64472_DB81_seg2 normalized qRT-PCR expression (Interferon stimulated exonuclease 20 (ISG20) transcript)” value ([1]; dose Ds1, Day5, oral gavage) was 0.852 and 1.176 and 1.034 and 0.822 and the “W83813_DB81_seg27 normalized qRT-PCR expression” value ([1]; dose Ds1, Day5, oral gavage) was 0.754 and 1.146 and 1.388 and 0.659. For the same molecule, the “AI045075_DB71_seg6 normalized qRT-PCR expression (Interferon stimulated exonuclease 20 (ISG20) transcript)” value ([1]; dose Ds2, Day1, oral gavage) was 0.444 and 1.146 and 0.527, the “H31883_DB71_seg13 normalized qRT-PCR expression (Cyclin-G1 (CCNG1) transcript)” value ([1]; dose Ds2, Day1, oral gavage) was 0.802 and 0.969 and 0.632 and 1.119 and 0.923 and 0.767 and 1.13 and 1.47 and 0.662 and 0.643 and the “MUSCYCG1R_DB81_seg19-20 normalized qRT-PCR expression” value ([1]; dose Ds2, Day1, oral gavage) was 0.92 and 0.203 and 0.275 and 2.153 and 0.29 and 0.152 and 1.45 and 2.313 and 0.798 and 0.158. The “W41270_DB81_seg11 normalized qRT-PCR expression (tumor necrosis factor receptor superfamily, member 12a transcript)” value ([1]; dose Ds2, Day1, oral gavage) was 0.49 and 0.347 and 0.174 and 0.912 and 0.418 and 0.359 (2×) and 0.667 and 0.956 and 0.897, the “W64472_DB81_seg2 normalized qRT-PCR expression (Interferon stimulated exonuclease 20 (ISG20) transcript)” value ([1]; dose Ds2, Day1, oral gavage) was 0.659 and 1.566 and 0.602 and the “W83813_DB81_seg27 normalized qRT-PCR expression” value ([1]; dose Ds2, Day1, oral gavage) was 0.67 and 0.137 and 0.761. For the same molecule, the “AI045075_DB71_seg6 normalized qRT-PCR expression (Interferon stimulated exonuclease 20 (ISG20) transcript)” value ([1]; dose Ds2, Day5, oral gavage) was 0.37 and 1.451 and 0.53, the “H31883_DB71_seg13 normalized qRT-PCR expression (Cyclin-G1 (CCNG1) transcript)” value ([1]; dose Ds2, Day5, oral gavage) was 0.942 and 0.718 and 1.058 and 1.087 and 2.34 and 1.259 and 0.705 and 0.846 and 0.949 and the “MUSCYCG1R_DB81_seg19-20 normalized qRT-PCR expression” value ([1]; dose Ds2, Day5, oral gavage) was 1.567 and 0.875 and 1.708 and 1.024 and 1.119 and 1.475 and 1.004 and 0.658 and 1.003. The “W41270_DB81_seg11 normalized qRT-PCR expression (tumor necrosis factor receptor superfamily, member 12a transcript)” value ([1]; dose Ds2, Day5, oral gavage) was 0.762 and 1.066 and 1.119 and 0.472 and 0.766 and 0.944 and 0.363 and 0.605 and 0.43, the “W64472_DB81_seg2 normalized qRT-PCR expression (Interferon stimulated exonuclease 20 (ISG20) transcript)” value ([1]; dose Ds2, Day5, oral gavage) was 0.368 and 0.779 and 0.656 and the “W83813_DB81_seg27 normalized qRT-PCR expression” value ([1]; dose Ds2, Day5, oral gavage) was 0.729 and 0.728 and 0.933. The Renal damage (kidney) was “no renal damage after up to 35 days of treatment”.
